The test concerns the target human PDE10A (Homo sapiens (Human), UniProt Q9Y233). The test is described as follows: human PDE10A full length assay ([3H]-cGMP SPA). Type of test: biochemical. As to conditions: human PDE10A full length enzyme, 50 nM cGMP + 50 nM [3H]-cGMP, 20 minutes at room temperature; read-out: PDE10A inhibition IC50. The method, then:
The human PDE10A full length assay was performed in 96-well micro titer plates. The reaction mixture of 50 μl contained 20 mM HEPES pH=7.5/10 mM MgCl2/0.05 mg/ml BSA (Sigma cat. #A-7906), 50 nM cGMP (Sigma, cat. #G6129) and 50 nM [3H]-cGMP (GE Healthcare, cat. #TRK392 S.A. 13.2 Ci/mmol), 3.75 ng/well PDE10A enzyme (Enzo Life Science, Lausen, Switzerland cat #SE-534) with or without a specific test compound. A range of concentrations of the potential inhibitor was used to generate data for calculating the concentration of inhibitor resulting in 50% of the effect (e.g. IC50, the concentration of the competitor inhibiting PDE10A activity by 50%). Non-specific activity was tested without the enzyme. The reaction was initiated by the addition of the substrate solution (cGMP and [3H]-cGMP) and allowed to progress for 20 minutes at room temperature. The reaction was terminated by adding 25 μl of YSi-SPA scintillation beads (GE Healthcare, cat. #RPNQ0150) in 18 mM zinc sulphate solution (stop reagent). After 1 h under shaking, the plate was centrifuged one minute at 170 g to allow beads to settle. Afterwards, radioactive counts were measured on a Perkin Elmer TopCount Scintillation plate reader.
Chain of human PDE10A (Q9Y233 other isoform, or with tags, fused parts or gaps): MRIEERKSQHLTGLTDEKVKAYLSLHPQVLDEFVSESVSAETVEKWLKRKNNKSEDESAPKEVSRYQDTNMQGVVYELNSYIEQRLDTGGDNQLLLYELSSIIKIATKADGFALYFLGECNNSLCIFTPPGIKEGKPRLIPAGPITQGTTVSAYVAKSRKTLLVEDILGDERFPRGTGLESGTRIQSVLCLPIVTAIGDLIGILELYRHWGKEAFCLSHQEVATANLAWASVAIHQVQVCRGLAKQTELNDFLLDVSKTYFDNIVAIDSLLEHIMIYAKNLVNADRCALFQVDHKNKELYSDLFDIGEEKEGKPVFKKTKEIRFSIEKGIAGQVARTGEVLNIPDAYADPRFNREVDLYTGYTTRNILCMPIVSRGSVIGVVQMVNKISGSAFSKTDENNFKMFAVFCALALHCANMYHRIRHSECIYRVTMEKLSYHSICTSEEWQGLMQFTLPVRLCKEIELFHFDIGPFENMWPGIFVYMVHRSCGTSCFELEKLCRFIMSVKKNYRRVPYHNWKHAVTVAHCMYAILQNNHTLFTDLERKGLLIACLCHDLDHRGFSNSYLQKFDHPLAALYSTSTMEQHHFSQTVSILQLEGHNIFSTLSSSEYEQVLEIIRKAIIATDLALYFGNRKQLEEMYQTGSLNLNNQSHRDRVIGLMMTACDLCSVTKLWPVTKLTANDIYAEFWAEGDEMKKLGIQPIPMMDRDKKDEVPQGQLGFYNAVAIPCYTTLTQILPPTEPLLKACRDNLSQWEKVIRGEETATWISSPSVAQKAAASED
As to `Cc1cn2nc(C)c(C)c2nc1CCc1nc(N2CCCC2)nn1C` [Example 61, 2,3,6-Trimethyl-5-(2-(1-methyl-3-(pyrrolidin-1-yl)-1H-1,2,4-triazol-5-yl)ethyl)pyrazolo[1,5-a]pyrimidine], the IC50 amounted to 76 nM.

With `Cc1nc2ccc(SCc3nc(N4CCCC4)nn3C)nn2c1C` [Example 28, 2,3-Dimethyl-6-((1-methyl-3-(pyrrolidin-1-yl)-1H-1,2,4-triazol-5-yl)methylthio)-imidazo[1,2-b]pyridazine], the IC50 is 568 nM. As to `Cc1nc2cc(C3CCC3)c(C#Cc3nc(N4CCCC4)nn3C)nn2c1C` [Example 51, 7-Cyclobutyl-2,3-dimethyl-6-((1-methyl-3-(pyrrolidin-1-yl)-1H-1,2,4-triazol-5-yl)ethynyl)imidazo[1,2-b]pyridazine], the IC50 was 0.6 nM. Under “N-Ethyl-6,7-dimethyl-2-(2-(1-methyl-3-(pyrrolidin-1-yl)-1H-1,2,4-triazol-5-yl)ethyl)-imidazo[1,2-f][1,2,4]triazin-4-amine [Example 32]” stands 6 nM. As for `Cc1nnc2ccc(C#Cc3nc(N4CCCC4)nn3C)nn12` [Example 56, 3-Methyl-6-((1-methyl-3-(pyrrolidin-1-yl)-1H-1,2,4-triazol-5-yl)ethynyl)[1,2,4]triazolo-[4,3-b]pyridazine], the IC50 came to 38.2 nM. In the case of “N-Ethyl-N,6,7-trimethyl-2-(2-(1-methyl-3-(pyrrolidin-1-yl)-1H-1,2,4-triazol-5-yl)ethyl)imidazo[1,2-f][1,2,4]triazin-4-amine [Example 34]”, the IC50 came to 5 nM.

Consider `CNC(=O)c1cc(C#Cc2nc(N3CCCC3)nn2C)nn2c(C)c(C(F)(F)F)nc12` [Example 69, N,3-Dimethyl-6-((1-methyl-3-(pyrrolidin-1-yl)-1H-1,2,4-triazol-5-yl)ethynyl)-2-(trifluoromethyl)imidazo[1,2-b]pyridazine-8-carboxamide], for which the IC50 was 2.1 nM. For `Cc1nc2ccc(CCc3nc(N4CCCC4)nn3C)nn2c1Cl` [Example 66, 3-Chloro-2-methyl-6-(2-(1-methyl-3-(pyrrolidin-1-yl)-1H-1,2,4-triazol-5-yl)ethyl)imidazo[1,2-b]pyridazine], the IC50 amounted to 14.5 nM.

For the origin of these results see US9617271B2, “Triazolo compounds” (Hoffmann-La Roche Inc., priority 2012, dated 2017).
